US20220274947A1, “NOVEL HETEROARYL-TRIAZOLE COMPOUNDS AS PESTICIDES” (Bayer Aktiengesellschaft, priority 2019, published 2022)

What was measured:
Format in all cases: in vivo
Rhipicephalus microplus [1] = experiment: Rhipicephalus (Boophilus) microplus injection test (BOOPMI Inj); settings: 168 h, injection into adult engorged female ticks, egg deposition after 7 days, read-out: activity (efficacy: 100% means all eggs are infertile); for pest or weed control at 0.02 mg: application rate 20 μg/tick; for pest or weed control at 0.004 mg: application rate 4 μg/tick
Procedure, shortened: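 Compound in DMSO, 1 μL, injected abdominally into five adult engorged females, which were then held in a climate chamber. Read-out is egg fertility, scored from deposition at 7 days, with unclear eggs followed to hatching (~42 days); 0% means all eggs fertile, 100% all infertile.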

Rhipicephalus microplus [2] = experiment: Rhipicephalus (Boophilus) microplus in-vitro contact test, larval cattle tick, strain Parkhurst (BOOPMI Cont); settings: application rate 5 μg/cm^2 (=500 g/ha), tick larvae, after 48 hours, read-out: activity (efficacy: 100% means all larvae are dead or moribund)
Procedure, shortened: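 After 48 h at 27° C. and 85% humidity, percent dead or moribund larvae was scored from negative geotactic behaviour. Larvae (20-50, Parkhurst strain, synthetic pyrethroid-resistant) were exposed in tubes coated with compound from acetone, 900 ppm corresponding to 5 μg/cm^2.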

Ctenocephalides felis [3] = experiment: Ctenocephalides felis oral test (CTECFE Oral); settings: 48 h, read-out: activity (mortality)
Procedure, shortened: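 Percent mortality was recorded 2 days after roughly 20 adult Ctenocephalides felis fed on treated cattle blood. The blood was warmed to 37 °C beneath a parafilm membrane, with the fleas kept at room temperature. Compound was dissolved in DMSO and diluted into the blood to test concentration.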

Diabrotica balteata = Diabrotica balteata spray test; settings: 168 h, wheat seeds, larvae, after 7 days, read-out: activity (efficacy: 100% means all seedlings have grown up like in the untreated, uninfected control); for pest or weed control at 32 µg/disc, 100 g/ha: application rate 100 g/ha (=32 μg/well); for pest or weed control at 160 µg/disc, 500 g/ha: application rate 500 g/ha (=160 μg/well)
Procedure, shortened: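 Efficacy (%) was scored 7 days after spraying, with 100% meaning growth like the untreated, uninfected control and 0% meaning no seedling grew. Spray solutions of compound in acetone/DMF with emulsifier-containing water went onto 1-day-germinated wheat seeds, and each unit was then infested with 10-20 banded cucumber beetle larvae.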

Meloidogyne incognita = Meloidogyne incognita test; settings: application rate 20 ppm, salad seedlings, after 14 days
Experimental: Meloidogyne incognita—Test Solvent: 125.0 parts by weight of acetone
To produce a suitable preparation of active compound, 1 part by weight of active compound is mixed with the stated amount of solvent, and the concentrate is diluted with water to the desired concentration.
Vessels are filled with sand, a solution of the active ingredient, a suspension containing eggs and larvae of the southern root-knot nematode (Meloidogyne incognita) and salad seeds. The salad seeds germinate and the seedlings grow. Galls develop in the roots.
After 14 days the nematicidal activity is determined based on the percentage of gall formation. 100% means no galls were found and 0% means the number of galls found on the roots of the treated plants was equal to that in untreated control plants.

Spodoptera frugiperda = Spodoptera frugiperda spray test; settings: in Zea mays, 168 h, read-out: activity (mortality)
Procedure, shortened: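 Percent kill of fall armyworm caterpillars was assessed 7 days after infesting dried, treated maize leaf sections. Treatment was a spray of compound in acetone/dimethylformamide, diluted with water containing emulsifier at 1000 ppm.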

Rhipicephalus sanguineus = Rhipicephalus sanguineus in-vitro contact test, adult brown dog ticks (RHIPSA Cont); settings: 48 h, after 48 hours, read-out: activity (efficacy: 100% means all ticks are dead or moribund); for pest or weed control at 1 µg/cm2, 100 g/ha: application rate 1 μg/cm^2 (=100 g/ha); for pest or weed control at 5 µg/cm2, 500 g/ha: application rate 5 μg/cm^2 (=500 g/ha)
Procedure, shortened: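 Mortality of adult R. sanguineus was judged 48 h after contact with acetone-applied residues on glass tube walls. Ticks that stayed immotile or moved without coordination when heated to 45–50 °C (max 5 min) counted as dead or moribund.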

[4] = test system: Aedes aegypti strain MONHEIM; experiment: Aedes aegypti test (AEDSAE surface treatment & contact assay); settings: exposure 30 minutes, 24 hours after contact, read-out: efficacy (mortality); for mortality at 20 mg/m2: surface concentration 20 mg/m^2, glazed tile
Procedure, shortened: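 Compound dissolved in acetone (2 mg/ml) with 2000 ppm rapeseed oil methyl ester, pipetted onto glazed tile and dried. Adult mosquitoes exposed on the surface for 30 min; percent mortality scored 24 h after contact.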

Myzus persicae [5] = experiment: Myzus persicae oral test; settings: 120 h, read-out: activity (mortality)
Procedure, shortened: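 Percent mortality was recorded at day 5, where 0% means no aphids killed. Compound prepared from an acetone concentrate diluted in water and combined with IPL41 medium containing sugar was offered to mixed-stage green peach aphids, which sucked it through a parafilm seal.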

[6] = test system: Musca domestica strain WHO—N; experiment: Musca domestica test (MUSCDO surface treatment & contact assay); settings: surface concentration 20 mg/m^2, glazed tile, exposure 30 minutes, 24 hours after contact, read-out: efficacy (mortality)
Procedure, shortened: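 Compound dissolved in acetone (2 mg/ml) with 2000 ppm rapeseed oil methyl ester and pipetted onto glazed tile; after acetone evaporation, adult flies exposed to dried surface for 30 minutes. Mortality (%) scored 24 hours after contact.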

Nilaparvata lugens = Nilaparvata lugens spray test; settings: 96 h, rice plants, after 4 days; for mortality at 100 g/ha: application rate 100 g/ha
Experimental: Nilaparvata lugens—Spray Test Solvent: 78.0 parts by weight of acetone • • 1.5 parts by weight of dimethylformamide Emulsifier: alkylarylpolyglycol ether
To produce a suitable preparation of active compound, 1 part by weight of active compound is mixed with the stated amount of solvents and is diluted with water, containing an emulsifier concentration of 1000 ppm, to the desired concentration. Further test concentrations are prepared by dilution with emulsifier containing water.
Rice plants (Oryza sativa) are sprayed with a preparation of the active ingredient of the desired concentration and the plants are infested with the brown planthopper (Nilaparvata lugens).
After 4 days mortality in % is determined. 100% means all planthoppers have been killed and 0% means none of the planthoppers have been killed.

Ctenocephalides felis [7] = experiment: Ctenocephalides felis in-vitro contact test, adult cat flea (CTECFE Cont); settings: application rate 5 μg/cm^2 (=500 g/ha), adult cat fleas, after 48 hours, read-out: activity (efficacy: 100% means all fleas are dead or moribund)
Procedure, shortened: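 Efficacy, as percent of fleas dead or moribund, was scored 48 h after adults (5-10 per tube) were placed in glass tubes whose walls carried dried compound at 5 μg/cm^2 (900 ppm solution). Moribund meant failing to climb away from a 45-50° C. hot plate within 5 min.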

Nezara viridula = Nezara viridula spray test; settings: in Hordeum vulgare, 96 h, barley plants, larvae, after 4 days
Procedure, shortened: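 Mortality was read at day 4 (0% = no kill, 100% = total kill) after spraying larva-infested barley plants. Test solutions were made from an acetone/DMF concentrate diluted with water holding 1000 ppm alkylarylpolyglycol ether emulsifier.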

Myzus persicae [8] = experiment: Myzus persicae spray test; settings: in Brassica rapa, foliar, 120 h, read-out: activity (mortality), application rate 100 g/ha, spray, Chinese cabbage leaf disks, after 5 days
Procedure, shortened: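 Aphid mortality in % was assessed 5 days after spraying; leaf disks of Brassica pekinensis carrying mixed-instar green peach aphids were treated. Spray preparation: active compound in acetone plus dimethylformamide, diluted with emulsifier-containing water (1000 ppm).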

Structure (SMILES) | pest or weed control at 0.02 mg (Rhipicephalus microplus [1]) | pest or weed control at 5 µg/cm2 (Rhipicephalus microplus [2]) | mortality at 100 ppm (Ctenocephalides felis [3]) | pest or weed control at 32 µg/disc, 100 g/ha (Diabrotica balteata) | pest or weed control at 160 µg/disc, 500 g/ha (Diabrotica balteata) | nematicidal activity (100% means no galls were found) (Meloidogyne incognita) | mortality at 100 g/ha (Spodoptera frugiperda) | mortality at 500 g/ha (Spodoptera frugiperda) | pest or weed control at 0.004 mg (Rhipicephalus microplus [1]) | pest or weed control at 1 µg/cm2, 100 g/ha (Rhipicephalus sanguineus) | pest or weed control at 5 µg/cm2, 500 g/ha (Rhipicephalus sanguineus) | mortality at 4 ppm (Myzus persicae [5]) | also measured
CCOc1nc([C@H](C)NC(=O)c2cc(Cl)cc(C(F)(F)F)c2)n(-c2ccc(C#N)cn2)n1 [I-12] | 100% | 100% | 90% | 100% | 100% | 90% | 100% | 100% | – | – | – | – | –
CCOc1nc([C@H](C)NC(=O)c2cc(C(F)(F)F)cc(C(F)(F)F)c2)n(-c2ccc(C#N)cn2)n1 [I-13] | 100% | 100% | 100% | 100% | 100% | 90% | 100% | 100% | 100% | – | – | – | –
CCOc1nc([C@H](C)NC(=O)c2cc(Cl)cc(Cl)c2)n(-c2ccc(C#N)cn2)n1 [I-14] | 100% | 100% | – | 100% | 100% | 100% | 83% | 100% | 100% | – | – | – | –
CC(C)c1nc([C@H](C)NC(=O)c2cc(Cl)cc(Br)c2)n(-c2ccc(C#N)cn2)n1 [I-19] | 100% | 100% | 100% | 100% | – | 90% | 100% | – | 100% | 100% | 100% | – | mortality at 20 mg/m2 [4]: 80 to 100%
CC(C)c1nc([C@H](C)NC(=O)c2cccc(Br)n2)n(-c2ccc(C#N)cn2)n1 [I-23] | 100% | – | – | – | – | 90% | – | – | 80% | – | 80% | – | –
C[C@H](NC(=O)c1cc(Cl)cc(C(F)(F)F)c1)c1ncnn1-c1cc([N+](=O)[O-])ccn1 [II-24] | 100% | 100% | – | – | 80% | 100% | – | 100% | 80% | 80% | – | – | –
C[C@H](NC(=O)c1cc(Cl)cc(OC(F)(F)F)c1)c1ncnn1-c1cc(NC(=O)C2CC2)ccn1 [II-25] | 100% | 100% | – | – | 80% | 90% | 100% | 100% | 100% | – | 80% | 100% | mortality at 4 mg/m2 ([4]; surface concentration 4 mg/m^2, glazed tile): 80 to 100%; mortality at 20 mg/m2 [4]: 80 to 100%; mortality at 20 mg/m2 [6]: 80 to 100%
C[C@H](NC(=O)c1cc(C(F)(F)F)cc(C(F)(F)F)c1)c1ncnn1-c1ccc(C(=O)N(C)CC(F)(F)F)cn1 [II-74] | 100% | 100% | – | 100% | 100% | – | 100% | 100% | 100% | 100% | 100% | 100% | mortality at 500 g/ha (Nilaparvata lugens; application rate 500 g/ha): 90%; pest or weed control at 5 µg/cm2 (Ctenocephalides felis [7]): 100%; mortality at 500 g/ha (Nezara viridula; application rate 500 g/ha): 100%
Cc1nc([C@H](C)NC(=O)c2cc(C(F)(F)F)cc(C(F)(F)F)c2)n(-c2ccc(C(=O)N(C)CCN(C)C)cn2)n1 [II-95] | – | 90% | 100% | – | – | – | – | – | 80% | 100% | – | 90% | mortality at 100 g/ha (Nilaparvata lugens): 90%; mortality at 100 g/ha (Nezara viridula; application rate 100 g/ha): 100%
Cc1nc([C@H](C)NC(=O)c2cc(Cl)cc(C(F)(F)F)c2)n(-c2cnc(C#N)cn2)n1 [II-104] | – | 100% | 100% | – | – | – | 100% | – | 100% | 100% | 100% | – | mortality at 100 g/ha (Nilaparvata lugens): 90%; pest or weed control at 5 µg/cm2 (Ctenocephalides felis [7]): 100%; mortality at 100 g/ha (Myzus persicae [8]): 100%
